# Measured values reported in US20160304552A1, “MODIFIED NUCLEIC ACID MOLECULES AND USES THEREOF” (MODERNA THERAPEUTICS, INC., priority 2013, published 2016).
# Assays:
# BJ fibroblast cells = assay: Cytokine screen in BJ fibroblast cells, human CCL-5/RANTES ELISA; format: cell-based; conditions: BJ fibroblasts, 500 ng modRNA, 18 h to 22 h
# Procedure: At 2 or 3 days prior to transfection, 100,000 BJ fibroblast cells (ATCC no. CRL-2522; Manassas, Va.) were harvested by treatment with trypsin-EDTA solution (LifeTechnologies, Grand Island, N.Y.) and seeded in a total volume of 500 ul EMEM medium (supplemented with 10% FCS and 10% Glutamax, both LifeTechnologies, Grand Island, N.Y.) per well in 24-well cell culture plates (Corning, Manassas, Va.). The cells were grown at 37° C. in a 5% CO2 atmosphere overnight. On the next day, 500 ng modRNA, harboring chemical modifications on the bases or the ribose units, were diluted in 25 ul final volume of OPTI-MEM (LifeTechnologies, Grand Island, N.Y.). Lipofectamine 2000 (LifeTechnologies, Grand Island, N.Y.) was used as transfection reagent and 1.0 ul was diluted in 25 ul final volume of OPTI-MEM. After 5 min incubation at room temperature, both solutions were combined and incubated an additional 15 min at room temperature. The 50 ul were added to the 500 ul cell culture medium containing the BJ fibroblast cells. The plates were then incubated as described above.
# After 18 h to 22 h incubation, cell culture supernatants were collected and centrifuged at 10,000 rcf for 2 min. The cleared supernatants were transferred and analyzed with a human IFN-beta ELISA (R&D Systems, Minneapolis, Minn.; Cat. #s 41410-2) and human CCL-5/RANTES ELISA (R&D Systems, Minneapolis, Minn.; Cat. #s SRN00B) according to the manufacturer instructions. All samples were diluted until the determined values were within the linear range of the ELISA standard curves using a BioTek Synergy H1 plate reader (BioTek, Winooski, Vt.).
# T7 RNA polymerase = T7 RNA polymerase (Escherichia phage T7, UniProt P00573); assay: In vitro transcription yields of modified mRNA; format: biochemical; conditions: for EPO In Vitro Transcription yield: EPO mRNA made with the modified NTP(s); for GCSF In Vitro Transcription yield: GCSF mRNA made with the modified NTP(s); for Luc In Vitro Transcription yield: Luciferase mRNA made with the modified NTP(s)
# Procedure: The in vitro transcription reaction generates mRNA containing modified nucleotides or modified RNA. The input nucleotide triphosphate (NTP) mix is made in-house using natural and unnatural NTPs.
# A typical in vitro transcription reaction includes the following:
# Incubation at 37° C. for 3 hr-5 hrs.
# The crude IVT mix may be stored at 4° C. overnight for cleanup the next day. 1 U of RNase-free DNase is then used to digest the original template. After 15 minutes of incubation at 37° C., the mRNA is purified using Ambion's […]™ Kit (Austin, Tex.) following the manufacturer's instructions. This kit can purify up to 500 μg of RNA. Following the cleanup, the RNA is quantified using the NanoDrop and analyzed by agarose gel electrophoresis to confirm the RNA is the proper size and that no degradation of the RNA has occurred.
# Modified mRNAs in TE buffer (1 μl) are used for Nanodrop UV absorbance readings to quantitate the yield of each modified mRNA from an in vitro transcription reaction (UV absorbance traces are not shown).
# HeLa cells = assay: Transfection in HeLa cells, human EPO modRNA (EPO ELISA of supernatant); format: cell-based; conditions: Table 22, 18 h to 22 h
# Procedure: The day before transfection, 20.000 HeLa cells (ATCC no. CCL-2; Manassas, Va.) were harvested by treatment with Trypsin-EDTA solution (LifeTechnologies, Grand Island, N.Y.) and seeded in a total volume of 100 ul EMEM medium (supplemented with 10% FCS and 1× Glutamax) per well in a 96-well cell culture plate (Corning, Manassas, Va.). The cells were grown at 37° C. in 5% CO2 atmosphere overnight. Next day, 83 ng of Luciferase modRNA or 250 ng of human GCSF modRNA, harboring chemical modifications on the bases or the ribose units, were diluted in 10 ul final volume of OPTI-MEM (LifeTechnologies, Grand Island, N.Y.). Lipofectamine 2000 (LifeTechnologies, Grand Island, N.Y.) was used as transfection reagent and 0.2 μl were diluted in 10 ul final volume of OPTI-MEM. After 5 min incubation at room temperature, both solutions were combined and incubated additional 15 min at room temperature. Then the 20 μl were added to the 100 ul cell culture medium containing the HeLa cells. The plates were then incubated as described before.
# After 18 h to 22 h incubation, cell culture supernatants of cells expressing human GCSF or human EPO were collected and centrifuged at 10.000 rcf for 2 min. The cleared supernatants were transferred and analyzed with a human GCSF-specific or EPO ELISA kit (both from R&D Systems, Minneapolis, Minn.; Cat. #s SCS50, DEP00, respectively) according to the manufacturer instructions. All samples were diluted until the determined values were within the linear range of the human GCSF or EPO ELISA standard curve.
# T7 RNA polymerase, sequence (P00573 whole entry): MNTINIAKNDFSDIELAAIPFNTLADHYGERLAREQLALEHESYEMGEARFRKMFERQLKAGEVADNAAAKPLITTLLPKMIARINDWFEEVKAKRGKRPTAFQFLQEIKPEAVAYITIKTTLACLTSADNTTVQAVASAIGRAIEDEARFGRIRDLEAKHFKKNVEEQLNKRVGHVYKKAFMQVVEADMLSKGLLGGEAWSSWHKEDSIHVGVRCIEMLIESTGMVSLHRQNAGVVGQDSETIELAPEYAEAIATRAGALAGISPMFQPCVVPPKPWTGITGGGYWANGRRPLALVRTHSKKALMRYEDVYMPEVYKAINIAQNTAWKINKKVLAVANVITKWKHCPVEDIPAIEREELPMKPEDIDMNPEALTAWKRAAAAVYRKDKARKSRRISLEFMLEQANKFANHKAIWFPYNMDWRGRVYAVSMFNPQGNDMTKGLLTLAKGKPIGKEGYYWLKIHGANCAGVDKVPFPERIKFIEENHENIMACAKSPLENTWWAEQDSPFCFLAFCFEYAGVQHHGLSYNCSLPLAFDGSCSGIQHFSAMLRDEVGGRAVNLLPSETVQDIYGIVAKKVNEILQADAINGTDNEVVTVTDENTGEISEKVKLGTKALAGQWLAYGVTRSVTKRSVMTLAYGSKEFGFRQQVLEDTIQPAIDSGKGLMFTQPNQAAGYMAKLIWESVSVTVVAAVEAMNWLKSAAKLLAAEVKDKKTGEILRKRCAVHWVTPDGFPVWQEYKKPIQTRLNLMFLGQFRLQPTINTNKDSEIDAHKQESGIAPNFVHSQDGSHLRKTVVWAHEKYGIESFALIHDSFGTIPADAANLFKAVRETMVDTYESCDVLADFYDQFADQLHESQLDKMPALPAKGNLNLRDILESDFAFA
Compound,Luc mRNA RANTES (BJ fibroblast cells),hEpo mRNA RANTES (BJ fibroblast cells),hGCSF mRNA RANTES (BJ fibroblast cells),EPO In Vitro Transcription yield (T7 RNA polymerase),GCSF In Vitro Transcription yield (T7 RNA polymerase),Luc In Vitro Transcription yield (T7 RNA polymerase),Epo Expression (HeLa cells)
"N4-acetyl-cytidine TP, ATP, GTP, UTP",2546 pg/mL,4360 pg/mL,4103 pg/mL,,,,
"5-trifluromethylcytidine TP, ATP, GTP, UTP",2303 pg/mL,7593 pg/mL,4203 pg/mL,,,,
"2-thio-pseudouridine TP, ATP, GTP, CTP",1706 pg/mL,5440 pg/mL,2106 pg/mL,,,,
"CNCc1cn([C@@H]2O[C@H](COP(=O)(O)OP(=O)(O)OP(=O)(O)O)C(O)C2O)c(=O)[nH]c1=O (some centres unmarked) [00901013006 (353), 5-Methylamino methyl-UTP]",,,,0.3060 mg,0.3494 mg,0.2914 mg,
"CNc1ccn([C@@H]2O[C@H](COP(=O)(O)OP(=O)(O)OP(=O)(O)O)C(O)C2O)c(=O)n1 (stereo in doubt) [00901014004 (346), N4-methyl CTP]",,,,1.154 mg,0.9028 mg,1.124 mg,90280 pg/mL
"5-bromocytidine TP, ATP, GTP, UTP",1380 pg/mL,1343 pg/mL,1900 pg/mL,,,,
"O=c1[nH]c(=O)n([C@@H]2O[C@H](COP(=O)(O)OP(=O)(O)OP(=O)(O)O)C(O)C2O)cc1C(F)(F)F (some centres unmarked) [00901013002 (352), 5-Trifluoromethyl-UTP]",,,,0.3830 mg,0.5102 mg,0.3662 mg,
"Nc1nc(N)c2ncn([C@@H]3O[C@H](COP(=O)(O)OP(=O)(O)OP(=O)(O)O)C(O)C3O)c2n1 (some centres unmarked) [03601011002 (154), 2-Amino-ATP]",,,,0.2612 mg,0.1567 mg,0.1215 mg,
"Cn1c(N)nc2c(ncn2[C@@H]2O[C@H](COP(=O)(O)OP(=O)(O)OP(=O)(O)O)C(O)C2O)c1=O (some centres unmarked) [Compound 00901012008, N1-Me-GTP]",,,,0.0032 mg,0.0050 mg,0.0059 mg,
"COC(=O)Cc1cn([C@@H]2O[C@H](COP(=O)(O)OP(=O)(O)OP(=O)(O)O)C(O)C2O)c(=O)[nH]c1=O (stereo in doubt) [00901013005 (358), 5-Methoxy carbonyl methyl-UTP]",,,,0.6432 mg,0.6475 mg,0.8825 mg,8333 pg/mL
